The results in this text go back to ChEMBL document CHEMBL3397008, “Design, synthesis and evaluation of XZH-5 analogues as STAT3 inhibitors” (Bioorg Med Chem, 2015).

The first experiment deals with HPAC. Kind of experiment: Cytotoxicity against human HPAC cells after 72 hrs by MTT assay. The format is functional, cell-based.
Conditions: not given
(Tetrazolium dyes change colour on reduction, which living cells bring about.)
The IC50 is the concentration that inhibits the measured activity by half. Low readings indicate inhibition by little substance, high ones a need for much substance. On to `COC(=O)[C@H](Cc1cn(C)cn1)NC(=O)[C@@H](NC(=O)Nc1cc(C(F)(F)F)cc(C(F)(F)F)c1)C(C)C`, for which 17.4 µM corresponded to half-maximal inhibition (IC50).
On to `COC(=O)[C@H](Cc1cn(C)cn1)NC(=O)[C@H](Cc1ccccc1)NC(=O)Nc1cc(C(F)(F)F)cc(C(F)(F)F)c1`, for which the IC50 was determined as 9.6 µM.
In turn, `CC[C@H](C)[C@H](NC(=O)Nc1cc(C(F)(F)F)cc(C(F)(F)F)c1)C(=O)N[C@@H](Cc1cn(C)cn1)C(=O)OC` displayed an IC50 of 7.6 µM.
In the case of `COC(=O)[C@H](Cc1cn(C)cn1)NC(=O)[C@@H](NC(=O)Nc1cc(C(F)(F)F)cc(C(F)(F)F)c1)C(C)(C)C`, the IC50 worked out at 9.8 µM.
Still for that read-out and setting: in the case of `CCn1cnc(C[C@H](NC(=O)[C@@H](NC(=O)Nc2cc(C(F)(F)F)cc(C(F)(F)F)c2)C(C)C)C(=O)OC)c1` it was 9.5 µM; in that of `COC(=O)[C@H](Cc1cn(C)cn1)NC(=O)[C@H](CC(C)C)NC(=O)Nc1cc(C(F)(F)F)cc(C(F)(F)F)c1`, 13.2 µM.

The test system of the next experiment is SW1990. Briefly: Cytotoxicity against human SW1990 cells after 72 hrs by MTT assay. The class given is functional, cell-based. The following applies: SW1990, 72 h.
On to `COC(=O)[C@H](Cc1cn(C)cn1)NC(=O)[C@@H](NC(=O)Nc1cc(C(F)(F)F)cc(C(F)(F)F)c1)C(C)C`, for which the IC50 was found to be 17.9 µM.
In turn, `COC(=O)[C@H](Cc1cn(C)cn1)NC(=O)[C@H](Cc1ccccc1)NC(=O)Nc1cc(C(F)(F)F)cc(C(F)(F)F)c1` showed a concentration for half-maximal inhibition (IC50) of 10.8 µM.
The compound `CC[C@H](C)[C@H](NC(=O)Nc1cc(C(F)(F)F)cc(C(F)(F)F)c1)C(=O)N[C@@H](Cc1cn(C)cn1)C(=O)OC` displayed an IC50 of 8.3 µM.
Still for that read-out and setting: in the case of `COC(=O)[C@H](Cc1cn(C)cn1)NC(=O)[C@@H](NC(=O)Nc1cc(C(F)(F)F)cc(C(F)(F)F)c1)C(C)(C)C` it was 8.5 µM.
For the compound `CCn1cnc(C[C@H](NC(=O)[C@@H](NC(=O)Nc2cc(C(F)(F)F)cc(C(F)(F)F)c2)C(C)C)C(=O)OC)c1`, 9.4 µM corresponded to half-maximal inhibition (IC50).
`COC(=O)[C@H](Cc1cn(C)cn1)NC(=O)[C@H](CC(C)C)NC(=O)Nc1cc(C(F)(F)F)cc(C(F)(F)F)c1` registered an IC50 of 9.1 µM.

The subject of a further experiment is MDA-MB-231. Kind of experiment: Cytotoxicity against human MDA-MB-231 cells after 72 hrs by MTT assay. The class given is functional, cell-based. The following applies: MDA-MB-231, 72 h.
`COC(=O)[C@H](Cc1cn(C)cn1)NC(=O)[C@@H](NC(=O)Nc1cc(C(F)(F)F)cc(C(F)(F)F)c1)C(C)C` gave an IC50 of 15.5 µM.
`COC(=O)[C@H](Cc1cn(C)cn1)NC(=O)[C@H](Cc1ccccc1)NC(=O)Nc1cc(C(F)(F)F)cc(C(F)(F)F)c1` gave an IC50 of 6.8 µM.
`CC[C@H](C)[C@H](NC(=O)Nc1cc(C(F)(F)F)cc(C(F)(F)F)c1)C(=O)N[C@@H](Cc1cn(C)cn1)C(=O)OC` came in with an IC50 of 6.5 µM.
Turning to `COC(=O)[C@H](Cc1cn(C)cn1)NC(=O)[C@@H](NC(=O)Nc1cc(C(F)(F)F)cc(C(F)(F)F)c1)C(C)(C)C`, half-maximal inhibition (IC50) required 9.4 µM.
Same read-out and setting: the value for `CCn1cnc(C[C@H](NC(=O)[C@@H](NC(=O)Nc2cc(C(F)(F)F)cc(C(F)(F)F)c2)C(C)C)C(=O)OC)c1` was 7.6 µM; that for `COC(=O)[C@H](Cc1cn(C)cn1)NC(=O)[C@H](CC(C)C)NC(=O)Nc1cc(C(F)(F)F)cc(C(F)(F)F)c1` was 10.6 µM.

Tested on in the next experiment: not listed separately
Kind of experiment: Cytotoxicity against human PANC1 cells after 72 hrs by MTT assay. The format is functional, cell-based. The following applies: PANC-1, 72 h.
`COC(=O)[C@H](Cc1cn(C)cn1)NC(=O)[C@@H](NC(=O)Nc1cc(C(F)(F)F)cc(C(F)(F)F)c1)C(C)C`: half-maximal inhibition (IC50) required 24.7 µM.
As to `COC(=O)[C@H](Cc1c[nH]cn1)NC(=O)[C@@H](NC(=O)Nc1cc(C(F)(F)F)cc(C(F)(F)F)c1)C(C)C`, the IC50 was determined as 98.4 µM.
Regarding `COC(=O)[C@H](Cc1cn(C)cn1)NC(=O)[C@H](Cc1ccccc1)NC(=O)Nc1cc(C(F)(F)F)cc(C(F)(F)F)c1`, the IC50 came to 16.1 µM.
`COC(=O)[C@H](Cc1cn(C)cn1)NC(=O)[C@@H](NC(=O)Nc1cccc(C(F)(F)F)c1)C(C)C` registered an IC50 of 61.9 µM.
Same read-out and setting: in the case of `COC(=O)[C@H](Cc1cn(C)cn1)NC(=O)[C@H](Cc1c[nH]c2ccccc12)NC(=O)Nc1cc(C(F)(F)F)cc(C(F)(F)F)c1` it was 31.4 µM; in that of `CC(C)[C@H](NC(=O)Nc1cc(C(F)(F)F)cc(C(F)(F)F)c1)C(=O)N[C@@H](Cc1cn(C)cn1)C(=O)O`, > 100 µM.
As to `CC[C@H](C)[C@H](NC(=O)Nc1cc(C(F)(F)F)cc(C(F)(F)F)c1)C(=O)N[C@@H](Cc1cn(C)cn1)C(=O)OC`, it took 10.1 µM to reach half-maximal inhibition (IC50).
As for `COC(=O)[C@H](Cc1cn(C)cn1)NC(=O)[C@H](C)NC(=O)Nc1cc(C(F)(F)F)cc(C(F)(F)F)c1`, 50 µM corresponded to half-maximal inhibition (IC50).
On the same count and under the same terms, in the case of `COC(=O)[C@H](Cc1cn(C)cn1)NC(=O)[C@H](CCC(=O)OCc1ccccc1)NC(=O)Nc1cc(C(F)(F)F)cc(C(F)(F)F)c1` it was 85.5 µM; in that of `C[C@H](NC(=O)Nc1cc(C(F)(F)F)cc(C(F)(F)F)c1)C(=O)N[C@@H](Cc1cn(C)cn1)C(=O)O`, > 100 µM; in that of `COC(=O)[C@H](Cc1cn(C)cn1)NC(=O)[C@@H](NC(=O)Nc1cc(C(F)(F)F)cc(C(F)(F)F)c1)C(C)(C)C`, 8.8 µM.
On the same count and under the same terms, in the case of `COC(=O)[C@H](Cc1cn(C)cn1)NC(=O)[C@H](CC(=O)OCc1ccccc1)NC(=O)Nc1cc(C(F)(F)F)cc(C(F)(F)F)c1` it was 68.6 µM; in that of `CCn1cnc(C[C@H](NC(=O)[C@@H](NC(=O)Nc2cc(C(F)(F)F)cc(C(F)(F)F)c2)C(C)C)C(=O)OC)c1`, 11.1 µM.
Compound `COC(=O)[C@H](Cc1cn(C)cn1)NC(=O)[C@H](CC(C)C)NC(=O)Nc1cc(C(F)(F)F)cc(C(F)(F)F)c1` showed an IC50 of 16.8 µM.
